Test results reported in US20220280581A1, “BENEFICIAL BACTERIA AND SECRETORY IMMUNOGLOBULIN A” (priority 2019, published 2022).

Columns and labels:
pooled human milk SIgA [1] = assay: Binding of SIgA to bacteria by flow cytometry
Description: Binding of sIgA to bacteria. Bacteria from Table 1 were resuspended in 0.8% saline at a concentration of 1×10^7 CFU/mL. SIgA was then added at 0, 10, 100, 500 and 1000 μg per 1×10^7 colony forming units (CFU) of bacteria and incubated at 24° C. for 30 min. Following incubation, bacteria were pelleted at 14000×g for 4 min and washed with saline twice to remove non-adherent SIgA.
(§1) Flow cytometry and immunofluorescence: To measure binding cells were fixed using 4% w/v paraformaldehyde for 30 min, washed with PBS, then incubated with 1% bovine serum albumin (BSA) blocking buffer for 1 h. Cells were stained with 1/100 dilution SYTOT™ 9 (S34854, ThermoFisher) for live cells and goat anti-human IgA conjugated to Alexa 647 fluorophore using 1/50 dilution in 1% BSA (ab96998, Abcam). For flow cytometry, all samples were acquired and analyzed on a FACScan flow cytometer (BD Biosciences, Mountain View, Calif.) using the CellQuest software program. For live/dead analyses following in vitro digestion, cells were stained with SYTOT™ 9 (1/100 dilution) for live cells and propidium iodine (1/1000 dilution) for dead cells or cells with compromised membranes.

[2] = system: Caco-2 colonic cells co-cultured with HT29-MTX E12 cells; assay: Bacterial adherence to colonocyte co-cultures; type: cell-based, human
Description: (§2) Mammalian cell culture binding assays: Caco-2 colonic cells were co-cultured with HT29-MTX E12 cells at a ratio of 3:1 and seeded at a density of 5×10^4 cells/well in 24-well plates, maintained as described above. On day 1 post-confluence, medium was removed, the cells washed once with PBS, and DMEM without FBS or antibiotics was added prior to binding assay. Bacteria were prepared as described above, with or without SIgA and resuspended in PBS at 1×10^7 CFU/mL. 4×10^5 CFU were added to the colonocytes and the plate was centrifuged at 600×g for 5 min to ensure bacteria association with the cells. After 2 h of incubation at 37° C. in 5% CO2, medium was removed and saved for cytokine analysis. Cells were washed once with PBS, and to one set of replicates, cells were lysed with 0.5% Triton X-100 and serial dilutions of the cell suspensions were plated on MRS and incubated anaerobically at 37° C. overnight to test viability. To a second set of replicates, TRIzol (15596018; Life Technologies) was added directly to washed cells for RNA extraction.

[3] = system: colonocytes (Caco-2 / HT29-MTX E12 co-culture); assay: Colonocyte barrier function and immune gene expression (RT-qPCR); type: cell-based, human; details: for change of IL-8 expression when SIgA is first complexed to the bacteria / change of JAM expression when SIgA is first complexed: SIgA-complexed vs bacteria alone
Description: as §2
Mammalian cell culture RT-qPCR for gene expression: Total RNA from mammalian co-culture samples were extracted via the TRIzol method. Total RNA (1 μg) was treated with Turbo DNAse (EN0521; Thermo Fisher) to remove genomic DNA, then used for reverse transcription producing cDNA, performed according to manufacturer protocol (High Capacity Complementary DNA Reverse Transcription Kit; Applied Biosystems). Gene list and primer sequences can be found in Table 2. Real-time PCR was performed with the Quantistudio 3 qPCR thermocycler (Applied Biosystems) using SyberGreen master mix (Life Technologies). Actin and GADPH were used as house-keeping genes. Analysis was performed using Quantistudio Design and Analysis Software v.1.4.3.

pooled human milk SIgA [4] = assay: Binding of SIgA to bacteria by flow cytometry; details: 100 μg SIgA to 1e6 cfu bacteria
Sal4 = assay: BLI-Sal4 association: concentration dependence and stability; type: binding; details: FIG. 6, BLI-Sal4
[5] = Protection from simulated gastric digestion in vitro (pepsin, pancreatin): viability by CFU plating and live/dead flow cytometry; details: for slope of regression plot of viability with SIgA association: post-digestion; for Slope (CFU/% SIgA): regression of viable CFU post-digestion on SIgA association
Description: as §1
Protection from digestion using an in vitro model. To determine the extent to which the SIgA-glycan-mediated-bacterial complexes that included the Ig-bound secretory component (SC) where able to protect bacteria and SIgA from proteolytic degradation, an in vitro model was used. Simulated gastric digestion was performed by resuspending bacteria in 200 ul of 0.1% porcine pepsin (Sigma—Aldrich, St. Louis, Mo.) in PBS at pH 4. Samples were placed in an incubating shaker (New Brunswick Scientific, Edison, N.J.) at 140 rpm at 37° C. for 15 min. Cells were then pelleted and resuspended in 200 ul of 0.04% pancreatin (Sigma— Aldrich) in PBS pH 7, and the samples placed in the incubator shaker at 140 rpm at 37° C. for 5 min. Bacteria were pelleted and washed twice with PBS to remove residual enzymes, then evaluated for viability through CFU serial dilution and spot plating, and with live/dead flow cytometry analysis.

[6] = colonocytes, listed as B. infantis

With “Bifidobacterium longum ssp. infantis ATCC 15697” the “binding of a heterogeneous pool of SIgA” value (pooled human milk SIgA [1]; 0-1000 μg SIgA per 1e7 CFU) was “concentration dependent”, the “association to SIgA when first grown on 2′FL” value (pooled human milk SIgA [1]; 1% 2′FL in the final media) was “increased association to SIgA” and the “increased adherence to the co-culture with the addition of SIgA” value ([2]; first grown on LNnT) was 7.5e5 CFU. The “increased adherence to the co-culture with the addition of SIgA” value ([2]; first grown on glucose) was 3.5e6 CFU, the “slope of regression plot of adherent bacteria with SIgA association” value ([2]; lactose-grown) was 4.6e3 adherent CFU per % population associated with SIgA and the “Slope (adherent CFU/% SIgA association)” value ([2]; substrate 2'FL) was 1552.0 adherent CFU/% SIgA associatio. For the same substance, the “Slope (adherent CFU/% SIgA association)” value ([2]; substrate LNnT) was 3606.0 adherent CFU/% SIgA associatio, the “Slope (adherent CFU/% SIgA association)” value ([2]; substrate all (no lac)) was 4887.0 adherent CFU/% SIgA associatio and the “Slope (adherent CFU/% SIgA association)” value ([2]; substrate glucose) was 6882.0 adherent CFU/% SIgA associatio. For the same substance, the “Slope (adherent CFU/% SIgA association)” value ([2]; substrate lactose) was −2230.0 adherent CFU/% SIgA associatio, the “change of barrier gene MUCSAC expression when SIgA is first complexed” value ([3]; colonocytes, 1000 μg SIgA per 1e7 CFU) was “decreased” and the “change of IL-8 expression when SIgA is first complexed to the bacteria” value [3, 6] was “reduces the expression”. The “change of JAM expression when SIgA is first complexed” value [3, 6] was “increasing the expression”, the “change of IL-8 expression when SIgA is first complexed to the bacteria” value ([3]; colonocytes, listed as BLI) was “increased” and the “change of JAM expression when SIgA is first complexed” value ([3]; colonocytes, listed as BLI) was “decreased”. The “change of Claudin 1 expression with SIgA association” value ([3]; mammalian colonocytes) was “increasing the expression”, the “change of Occludin expression with SIgA association” value ([3]; mammalian colonocytes) was “increasing the expression” and the “ability to bind to pooled human milk SIgA” value (pooled human milk SIgA [4]) was 92.4%. For the same substance, the “increase in SIgA binding when first grown on an HMO substrate” value (pooled human milk SIgA [4]; HMO-grown) was 4.8%, the “SIgA association with BLI: concentration dependence” value (Sal4) was “concentration dependent” and the “SIgA association with BLI: stability over time” value (Sal4; 6 hour) was “stable over a 6 hour time interval”. The viable bacteria post-digestion ([5]; grown on LNnT, 1000 μg SIgA/1e7 CFU) was 1.3e5 CFU, the viable bacteria post-digestion ([5]; grown on LNnT, no SIgA) was 1.2e4 CFU and the viable bacteria post-digestion ([5]; grown on glucose, 1000 μg SIgA/1e7 CFU) was 8.9e5 CFU. For the same substance, the viable bacteria post-digestion ([5]; grown on glucose, no SIgA) was 1e5 CFU, the “slope of regression plot of viability with SIgA association” value ([5]; grown on LNnT) was 1.2e3 CFU per % population SIgA association and the “slope of regression plot of viability with SIgA association” value ([5]; grown on glucose) was 8.2e4 CFU per % population SIgA association. The “Slope (CFU/% SIgA)” value ([5]; substrate 2′FL) was 410.1 CFU/% SIgA, the “Slope (CFU/% SIgA)” value ([5]; substrate LNnT) was 1214 CFU/% SIgA and the “Slope (CFU/% SIgA)” value ([5]; substrate glucose) was 8970 CFU/% SIgA. For the same substance, the “Slope (CFU/% SIgA)” value ([5]; substrate lactose) was 76377 CFU/% SIgA.
